From PMC5587766, “Towards designer organelles by subverting the peroxisomal import pathway” (Nature Communications, 2017)
Each block holds one molecule with its values, some of them ahead of it. The star is where a group is joined. Dansyl = CN(C)c1cccc2c(S(=O)(=O)*)cccc12

What was measured:
[1] = tested on: naturally occurring PEX5 receptor; experiment: PEX5 (naturally occurring receptor) binding of orthogonal peptide (overall statement)
Excerpt: PEX5 is a modular protein: the C-terminal domain recognizes PTS1 within a funnel-shaped pocket created by 7 α-helical tetratricopeptide repeats (TPRs)[14], while the N-terminal domain of PEX5, which is natively unstructured, is responsible for the docking, cargo delivery, and recycling functions of the receptor[10]. […] The PEX5*-PTS1* pair was discovered by assessing the binding of a range of variants of the C-terminal domain of Arabidopsis thaliana PEX5 (AtPEX5C) with a library of pentapeptides (Fig. 1a). […] PTS1* has low affinity for the naturally occurring PEX5 receptor. Following optimization, the C-terminal PEX5* sequence was combined with the N-terminal domain of PEX5 from the moss Physcomitrella patens (Phypa PEX5N) to create a fully functional PEX5* receptor (Fig. 1a). Concomitant expression of PEX5* with a cargo protein bearing PTS1* results in targeting of the cargo to the peroxisome at the expense of naturally occurring peroxisomal components—a process that was easily visualized in moss cells using fluorescent reporter proteins (Fig. 1b).

AtPEX5 TPR domain = details: cited from earlier work
Excerpt: The pentapeptide library sequences were based on YQSKL, which has a nM affinity for the AtPEX5 TPR domain[17] and is widely used as a model PTS1 peptide. This sequence was randomized at the two C-terminal positions to create a library of sequences, YQSXX, where X represents any amino acid, which was efficiently prepared using split-and-pool solid-phase peptide synthesis. A dansyl fluorophore introduced at the N-terminus of the peptide added hydrophobicity to improve retention in LC-MS analysis. Deconvolution of Leu- and Ile-containing peptides was enabled by preparation of four sub-librari ...

[2] = lissamine-labelled peptide, not pursued in FA assay
AtPEX5C N601A = target: T1, AtPEX5C N601A (Arabidopsis thaliana, UniProt Q9FMA3 340-728, N601A); experiment: pull-down; His6-protein (12.5 µM) incubated with the combined dansyl-YQSXX library (500 nM each peptide) in 50 mM Na2HPO4, 300 mM NaCl, 10 mM 2-mercaptoethanol, 15% glycerol, pH 8.0, 4 °C, 1 h; captured on Co-NTA resin, washed, bound peptides eluted with 6 M urea and identified by ESI-LC-MS; semi-quantitative; details: both partners purified
T1 construct: Made by site-directed mutagenesis of His6-AtPEX5 (340-728) in pET-28b; also called N601A variant; source: E. coli BL21-Gold (DE3), purified (Co-NTA)
T1 sequence (looked up): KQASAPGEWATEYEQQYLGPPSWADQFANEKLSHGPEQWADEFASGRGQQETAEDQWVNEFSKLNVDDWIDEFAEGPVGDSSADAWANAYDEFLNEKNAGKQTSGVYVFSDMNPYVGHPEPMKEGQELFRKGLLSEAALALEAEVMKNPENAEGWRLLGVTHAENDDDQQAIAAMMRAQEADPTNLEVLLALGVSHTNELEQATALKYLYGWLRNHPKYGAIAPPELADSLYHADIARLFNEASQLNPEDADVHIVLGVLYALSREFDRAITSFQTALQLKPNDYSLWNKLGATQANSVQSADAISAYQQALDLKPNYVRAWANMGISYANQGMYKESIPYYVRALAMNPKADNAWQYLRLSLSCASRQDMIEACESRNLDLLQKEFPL

AtPEX5C D505H = target: T2, AtPEX5C D505H (Arabidopsis thaliana, UniProt Q9FMA3 340-728, D505H); experiment: as above; details: both partners purified
T2 construct: Made by site-directed mutagenesis of His6-AtPEX5 (340-728) in pET-28b; also called D505H variant of AtPEX5C; source: E. coli BL21-Gold (DE3), purified (Co-NTA)
T2 sequence (looked up): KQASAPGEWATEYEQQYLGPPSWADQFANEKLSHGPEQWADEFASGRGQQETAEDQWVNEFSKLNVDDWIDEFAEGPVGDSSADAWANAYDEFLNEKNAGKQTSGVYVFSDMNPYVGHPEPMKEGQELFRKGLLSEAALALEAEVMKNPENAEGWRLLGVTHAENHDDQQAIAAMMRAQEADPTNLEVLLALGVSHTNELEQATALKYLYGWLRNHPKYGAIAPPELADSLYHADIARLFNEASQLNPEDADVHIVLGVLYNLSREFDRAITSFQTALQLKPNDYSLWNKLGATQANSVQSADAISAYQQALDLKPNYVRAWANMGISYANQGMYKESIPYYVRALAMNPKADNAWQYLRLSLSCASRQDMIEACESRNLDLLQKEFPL

Molecule: WWRDPYSPMYQSYY [PTS1*, YQSYY including enhancing upstream residues]
affinity for naturally occurring PEX5 receptor [1]: low affinity

Molecule: YQSKL [model PTS1 peptide]
affinity for AtPEX5 TPR domain (AtPEX5 TPR domain): nM affinity

Molecule: lissamine-labelled YQSFY
solubility [2]: poor solubility

binding result (AtPEX5C N601A): binds | binding result (AtPEX5C D505H): binds
B1: dansyl-YQSFY (peptide)
peptide: Dansyl-YQSFY-OH
SMILES: CN(C)c1cccc2c(S(=O)(=O)N[C@@H](Cc3ccc(O)cc3)C(=O)N[C@@H](CCC(N)=O)C(=O)N[C@@H](CO)C(=O)N[C@@H](Cc3ccccc3)C(=O)N[C@@H](Cc3ccc(O)cc3)C(=O)O)cccc12
notes: member of the YQSXX pentapeptide library; Tested within the combined library of 324 peptides, not alone; source: synthetic peptide, member of the split-and-pool dansyl-YQSXX library
